{"source": "patent US20070281903A1", "about": "“Morinda Citrifolia-Based Formulation 5-LOX And 15-LOX” (priority 2006, published 2007)", "target": "T1, 5-Lipoxygenase (5-LOX) (Homo sapiens, UniProt P09917)", "T1 construct": "Human peripheral blood mononuclear leukocytes (PBML) were isolated through a Ficoll-Paque density gradient; endogenous in cells; host or cells: human peripheral blood mononuclear leukocytes (PBML)", "T1 sequence (P09917 1-674)": "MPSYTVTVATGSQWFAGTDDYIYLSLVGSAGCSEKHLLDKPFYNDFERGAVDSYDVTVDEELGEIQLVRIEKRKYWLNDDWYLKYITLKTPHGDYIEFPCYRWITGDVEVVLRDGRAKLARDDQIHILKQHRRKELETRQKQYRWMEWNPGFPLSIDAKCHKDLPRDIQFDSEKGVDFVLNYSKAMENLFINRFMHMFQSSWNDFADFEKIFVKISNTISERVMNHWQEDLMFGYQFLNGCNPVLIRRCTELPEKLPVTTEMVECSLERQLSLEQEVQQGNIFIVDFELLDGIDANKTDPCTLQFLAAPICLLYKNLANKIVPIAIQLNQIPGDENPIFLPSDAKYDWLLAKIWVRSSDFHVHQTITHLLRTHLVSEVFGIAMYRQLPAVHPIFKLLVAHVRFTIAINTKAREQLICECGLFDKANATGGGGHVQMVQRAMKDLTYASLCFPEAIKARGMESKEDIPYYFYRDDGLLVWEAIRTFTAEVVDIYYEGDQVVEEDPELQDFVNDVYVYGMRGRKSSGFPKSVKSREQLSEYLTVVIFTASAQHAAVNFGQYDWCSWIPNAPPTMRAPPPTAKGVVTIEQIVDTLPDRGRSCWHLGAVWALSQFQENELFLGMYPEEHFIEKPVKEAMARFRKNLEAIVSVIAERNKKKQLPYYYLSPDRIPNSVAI", "assay": "5-Lipoxygenase inhibition assay, LTB4 by EIA in A23187-stimulated human PBML", "type": "cell-based", "details": "for Avg. % Inh.: average of duplicates; for % Inh. / Product (pg/well): single replicate", "excerpt": "Methods employed in this example were adapted from the scientific literature to maximize reliability and reproducibility. […] 110-13 (2000).\nIn this study, the 5-LOX source was human peripheral blood mononuclear cells (PBMNC) and the substrate was arachidonic acid having a general reaction of: arachidonic acid →5-LOX→5-HPETE→LTB4. Human peripheral blood mononuclear leukocytes (PBML) were isolated through a Ficoll-Paque density gradient. The inhibiting agent was processed Morinda citrifolia puree juice concentrate. Morinda citrifolia was pre-incubated with PBML (5×10^6 cell/ml) in HBSS buffer pH 7.4 at 37° C. for 15 minutes. […] Following neutralization with NaOH and centrifugation, the supernatant LTB4 is measured using an EIA kit.\nThe supernatant sample was utilized in same assay and protocols as outlined in Example One above, wherein the brown substance obtained was substituted for Morinda citrifolia puree juice.", "note": "Values joined by “and” are separate entries in the source; they are usually repeats but may differ in a detail not shown here. Equal values may be shown once.", "data": [{"smiles": "CC(Cc1ccc(O)c(O)c1)C(C)Cc1ccc(O)c(O)c1", "note": "(stereo not drawn) [NDGA, nordihydroguaretic acid]", "values": [{"measurement": "Avg. % Inh.", "setting": "Conc. 0.03 uM", "value": 6, "unit": "%"}, {"measurement": "% Inh.", "setting": "Conc. 0.03 uM", "value": "3.6% and 9.2%"}, {"measurement": "Product (pg/well)", "setting": "Conc. 0.03 uM", "value": "3608.3 pg/well and 3403.4 pg/well"}, {"measurement": "Avg. % Inh.", "setting": "Conc. 0.1 uM", "value": 36, "unit": "%"}, {"measurement": "% Inh.", "setting": "Conc. 0.1 uM", "value": 36.1, "unit": "%"}, {"measurement": "Product (pg/well)", "setting": "Conc. 0.1 uM", "value": 2433.3, "unit": "pg/well"}, {"measurement": "Avg. % Inh.", "setting": "Conc. 0.3 uM", "value": 73, "unit": "%"}, {"measurement": "% Inh.", "setting": "Conc. 0.3 uM", "value": "73.5% and 72.8%"}, {"measurement": "Product (pg/well)", "setting": "Conc. 0.3 uM", "value": "1083.1 pg/well and 1106.1 pg/well"}, {"measurement": "Avg. % Inh.", "setting": "Conc. 1 uM", "value": 97, "unit": "%"}, {"measurement": "% Inh.", "setting": "Conc. 1 uM", "value": "97.0% and 97.4%"}, {"measurement": "Product (pg/well)", "setting": "Conc. 1 uM", "value": "233.7 pg/well and 217.9 pg/well"}, {"measurement": "Avg. % Inh.", "setting": "Conc. 3 uM", "value": 100, "unit": "%"}, {"measurement": "% Inh.", "setting": "Conc. 3 uM", "value": "99.7% and 100.8%"}, {"measurement": "Product (pg/well)", "setting": "Conc. 3 uM", "value": "134.9 pg/well and 94.3 pg/well"}]}]}
